These results are taken from patent US11022550B2, “Method for observing organisms and associated system” (Commissariat à l'énergie atomique et aux énergies …, priority 2013, dated 2021).

Holding throughout (type): cell-based
Assay [1] has as its system Escherichia coli strain EC10. In words: Microcolony growth and diffraction patterns on MH2 agar with gentamycin disc gradient, strain EC10 (first and third experiments). From the text: The solid substrate 16 is a MH2 agar medium. Depending on the cases, the solid substrate 16 includes an antibiotic with increasing concentration when one moves away from the center of the Petri dish. For example, such a gradient is obtained by depositing a disc impregnated with 30 micrograms (μg) of antibiotics. The disc, as an illustration, is a disc with a diameter of 6.5 mm, the reference of which is 66548 in the Biorad Corporation. When the disc is deposited at the surface of the substrate 16, an antibiotic concentration gradient is established, in the substrate 16, between the disc and the periphery of the substrate 16. In each case, the sample 12 to be studied is prepared according to the following procedure. At least one cell of the strain to be studied is cultivated on a trypticase soya gelose medium (often called TSA for <<Tryptic Soy Agar>>) for at least 24 hours. A suspension of 5 milliliters (ml) comprising water and an amount of cells of the strain such that the turbidity of the solution is equal to 0.5 McF (McFarland standard), is then prepared. The obtained suspension is diluted to 1/1000th in water in a single step. In the relevant experiments, […] are poured into […]. A volume of 70 μl of the thereby obtained diluted suspension is then spread out by means of a rake on the solid MH2 agar substrate 16. Such a volume corresponds to the spreading of approximately 1,000 to 1,500 colonies on the solid substrate 16. In the case when the experiment is conducted with a solid substrate 16 comprising the antibiotic gradient, the disc is applied immediately after the spreading step. The whole of the sample 12 is then incubated for six hours at a temperature of 37° C. (Celsius). After these six hours, the observation system 10 is used for applying a method for observing the cells of the sample 12. For the first experiment, the studied organisms belong to the EC10 strain and the solid substrate 16 comprises a gentamycin gradient. A first colony of cells of the EC10 strain of the sample 12 is illuminated with the laser beam emitted by the laser source 20. The center of this colony is found at a distance of 13.5 millimeters (mm) from the center of the disc, in an area with low gentamycin concentration, since it is sufficiently far from the disc. For the third experiment, a large number of diffraction patterns is acquired (about 100) for solid substrates 16 with and without gentamycin. The studied organism is a cell from the EC10 strain.

Assay [2] relates to Escherichia coli ATCC 35421 (strain EC21). In words: E-test minimum inhibitory concentration, resistant strain EC21. An excerpt:
The principle of the E-test® is based on the combination of both concepts: Dilution and diffusion. The system E-test® comprises a non-porous plastic strip calibrated by a pre-established gradient of antibiotic concentration covering 15 dilutions for determining the MIC in μg/ml of a strain tested in a gelose medium.
The resistant strain is of the Escherichia coli species of ATCC number 35421. In the continuation of the description, the resistant strain is noted as EC21.
This measurement was obtained by conducting an E-test®.

Assay [3] deals with Escherichia coli strain EC21. Kind of assay: Microcolony growth and diffraction patterns on MH2 agar with gentamycin disc gradient, strain EC21 (second experiment). An excerpt:
The solid substrate 16 is a MH2 agar medium. Depending on the cases, the solid substrate 16 includes an antibiotic with increasing concentration when one moves away from the center of the Petri dish. For example, such a gradient is obtained by depositing a disc impregnated with 30 micrograms (μg) of antibiotics. The disc, as an illustration, is a disc with a diameter of 6.5 mm, the reference of which is 66548 in the Biorad Corporation. When the disc is deposited at the surface of the substrate 16, an antibiotic concentration gradient is established, in the substrate 16, between the disc and the periphery of the substrate 16. In each case, the sample 12 to be studied is prepared according to the following procedure. At least one cell of the strain to be studied is cultivated on a trypticase soya gelose medium (often called TSA for <<Tryptic Soy Agar>>) for at least 24 hours. A suspension of 5 milliliters (ml) comprising water and an amount of cells of the strain such that the turbidity of the solution is equal to 0.5 McF (McFarland standard), is then prepared. The obtained suspension is diluted to 1/1000th in water in a single step. In the relevant experiments, […] are poured into […]. A volume of 70 μl of the thereby obtained diluted suspension is then spread out by means of a rake on the solid MH2 agar substrate 16. Such a volume corresponds to the spreading of approximately 1,000 to 1,500 colonies on the solid substrate 16. In the case when the experiment is conducted with a solid substrate 16 comprising the antibiotic gradient, the disc is applied immediately after the spreading step. The whole of the sample 12 is then incubated for six hours at a temperature of 37° C. (Celsius). After these six hours, the observation system 10 is used for applying a method for observing the cells of the sample 12. For the second experiment, the same experiment is conducted as the first experiment, by replacing the cells of the strain EC10 with cells of the strain EC21. […]

For assay [4], the system named is Escherichia coli ATCC 259922 (strain EC10). Kind of assay: E-test minimum inhibitory concentration, sensitive strain EC10. As for the experimental part:
The sensitive strain is of the Escherichia coli species with the ATCC number of 259922. In the continuation of the description, the sensitive strain is noted as EC10. The minimum inhibitory concentration of the strain EC10 amounts to 1.0 μg/ml. In microbiology, the minimum inhibitory concentration (also noted with the acronym MIC) is the lowest concentration of antimicrobial agent which inhibits visible growth of an organism after one night of incubation. The value of 1.0 μg/ml for the minimum inhibitory concentration was obtained by conducting an E-test®. The principle of the E-test® is based on the combination of both concepts: Dilution and diffusion. The system E-test® comprises a non-porous plastic strip calibrated by a pre-established gradient of antibiotic concentration covering 15 dilutions for determining the MIC in μg/ml of a strain tested in a gelose medium.

Turning to gentamycin, the “maximum size of colony in direct space” value in assay [1] (5.0 mm from center of 30 μg disc, 6 h incubation at 37° C.) is “about 15 μm”; in assay [1] (8.3 mm from center of 30 μg disc, 6 h incubation at 37° C.) it was “about 30 μm”; in assay [1] (9.1 mm from center of 30 μg disc, 6 h incubation at 37° C.), “about 50 μm”. Also, the “colony diameter in direct space” value in assay [1] (13.5 mm from center of 30 μg disc, 6 h incubation at 37° C.) is on record as “about 60 μm”. Also, the “sensitivity of organism from main component analysis of diffraction patterns” value in assay [1] (about 100 diffraction patterns, with and without gentamycin, first main component smaller at larger concentration) was “sensitive”. The results for the “minimum inhibitory concentration (MIC)” value in assay [2] and in assay [4] were “greater than 256 μg/ml” and 1.0 µg/mL, respectively. Further, the “maximum extension of each observed colony” value in assay [3] (7.29, 6.63, 5.53 and 4.37 mm from center of 30 μg disc, 6 h incubation at 37° C.) is reported as around 90 μm. In assay [3] (diffraction patterns substantially identical at increasing gentamycin concentration), the “sensitivity of organism from comparison of diffraction patterns” value is recorded as “resistant”. Besides, in assay [3] (gentamycin gradient on MH2 agar), the “effect on growth of the organisms” value is “no effect on the growth”.
